Literature values as cited in patent US8883207B2, “Controlled release carvedilol formulation” (TSH Biopharm Corporation Ltd., priority 2009, dated 2014).
Like-named read-outs stand apart in the source and are kept apart here.

Tests used:
[1] = not given; remark: listed apart in the source

## COc1ccccc1OCCNCC(O)COc1cccc2[nH]c3ccccc3c12 (racemic) [carvedilol, ((±)1-(carbazol-4-yloxy-3-[[2-(o-methoxyphenoxy)ethyl]-amino]-2-propanol)]
colon
  relative absorption: 7%
ileum
  relative absorption: 28%
jejunum
  relative absorption: 56%
[1]; gastric fluid (simulated, TS, pH 1.1)
  solubility in gastric fluid: low solubility
[1]; intestinal fluid (simulated, TS without pancreatin, pH 7.5)
  solubility in intestinal fluid: low solubility
[1]; water
  solubility in water: low solubility
